Values quoted from earlier work as cited in patent publication US20130190499A1, “Azaisoquinolinone derivatives as NK3 antagonists” (H. Lundbeck A/S, priority 2010, published 2013).

Target: T1, NK3 (Homo sapiens, UniProt P29371)
T1 sequence (P29371 1-465): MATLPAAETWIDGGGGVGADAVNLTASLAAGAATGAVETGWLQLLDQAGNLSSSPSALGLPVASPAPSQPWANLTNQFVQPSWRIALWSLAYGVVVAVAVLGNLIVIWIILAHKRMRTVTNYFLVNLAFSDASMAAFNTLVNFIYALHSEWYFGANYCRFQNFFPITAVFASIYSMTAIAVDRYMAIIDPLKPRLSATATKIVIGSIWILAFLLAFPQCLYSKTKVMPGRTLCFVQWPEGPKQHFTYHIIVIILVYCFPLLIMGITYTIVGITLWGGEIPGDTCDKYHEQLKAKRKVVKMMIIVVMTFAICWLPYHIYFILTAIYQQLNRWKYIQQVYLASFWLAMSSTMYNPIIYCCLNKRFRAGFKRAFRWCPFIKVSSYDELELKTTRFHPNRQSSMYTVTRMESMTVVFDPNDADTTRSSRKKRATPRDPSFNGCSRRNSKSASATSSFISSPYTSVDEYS

Row | Structure (SMILES) | Effect in clinical trials, in particular on positive symptoms of psychosis (versus placebo, delusions, hallucinations and paranoia) | Effect in clinical trials on cognitive behaviour of schizophrenics (schizophrenics)
1 | CC(=O)N(C)C1(c2ccccc2)CCN(CCC[C@]2(c3ccc(Cl)c(Cl)c3)CCCN(C(=O)c3ccccc3)C2)CC1 [Osanetant] | superior to placebo | 
2 | CC[C@H](NC(=O)c1c(O)c(-c2ccccc2)nc2ccccc12)c1ccccc1 [talnetant] |  | ameliorate the cognitive behaviour of schizophrenics
